Some test systems named below: SK-OV-3; T47D; LOX IMVI; OVCAR-4; RXF 393; HCC 2998; SN12C; 786-0; DU-145; OVCAR-8; SK-MEL-5; ACHN; NCI-H522; SNB-75; A498; SF-268; NCI/ADR-RES; Malme-3M; HT-29; CAKI-1.
Holding throughout (assay): NCI tumour cell line growth inhibition, 48 h

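Test compounds were applied to cells in 96-well plates for 48 hours at 5 doses. Abbreviation: GI50, concentration required for 50% inhibition of growth.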 Activity calls are given as the source filed them. Rule as the data show it: active = GI50 up to about 1.1 µM and inactive = higher. Where only a bound is given, the exact number is not on record here.

The record followed here is ChEMBL document CHEMBL1201862, “PubChem BioAssay data set” (2004).

Regarding `COC(=O)[C@H](Cc1c[nH]c2ccccc12)NC(=O)c1ccccc1I`, the GI50 in the test on SK-OV-3 was 33.6 µM (inactive); with T47D, 22.6 µM (inactive); in the test on LOX IMVI it was 19.7 µM (inactive); in the test with OVCAR-4 it was 30 µM (inactive); with RXF 393, 18.7 µM (inactive); in the test with HCC 2998, 26.4 µM (inactive). Moreover, the GI50 was > 100 µM (inactive) in the test with SN12C; 16.1 µM (inactive) in the test with 786-0; 21.8 µM (inactive) with DU-145; 31.7 µM (inactive) in the test on OVCAR-8; 16.1 µM (inactive) in the test on SK-MEL-5; 17.1 µM (inactive) in the test with ACHN. For the same molecule, the GI50 in the test on NCI-H522 is 15.6 µM (inactive); in the test on SNB-75, 11.8 µM (inactive); with A498, 18.5 µM (inactive); in the test on SF-268, 19.8 µM (inactive); in the test on NCI/ADR-RES it was 32.1 µM (inactive); in the test on Malme-3M, 18.7 µM (inactive). In addition, the figures for the GI50 in the test on HT-29 and in the test on CAKI-1 were 23.7 µM (inactive) and 20.7 µM (inactive), respectively.

On to `C=C(CCC/C(C)=C/C=C/[C@]1(C)CCCc2ccoc21)CC(=O)O`, for which the GI50 with SK-OV-3, with T47D, in the test on LOX IMVI, in the test on OVCAR-4, in the test on RXF 393 and in the test on HCC 2998 was > 100 µM (inactive) each time. Also, the GI50 is > 100 µM (inactive) with SN12C; > 100 µM (inactive) with 786-0; 42.5 µM (inactive) in the test on DU-145; > 100 µM (inactive) in the test with OVCAR-8; > 100 µM (inactive) in the test with SK-MEL-5; > 100 µM (inactive) in the test on ACHN. Moreover, the GI50 with NCI-H522, in the test on SNB-75, with A498, in the test with SF-268, in the test with NCI/ADR-RES and with Malme-3M was > 100 µM (inactive) each time. Besides, the GI50 in the test on HT-29 and in the test with CAKI-1 was > 100 µM (inactive) in each case.

On to `CCCCn1c2c(n(CCCC)c1=S)-c1c(n(CCCC)c(=S)n1CCCC)SSSS2`, for which the GI50 in the test with SK-OV-3 was 46.1 µM (inactive); with T47D it was 0.18 µM (active); with LOX IMVI, 2.03 µM (inactive); in the test with OVCAR-4, 0.367 µM (active); in the test on RXF 393, 2.7 µM (inactive); in the test with HCC 2998 it was 7.59 µM (inactive). In addition, the GI50 in the test with SN12C was 3.1 µM (inactive); in the test on 786-0, 1.38 µM (inactive); with DU-145, 5.42 µM (inactive); in the test on OVCAR-8, 0.718 µM (active); in the test on SK-MEL-5, 2.09 µM (inactive); in the test with ACHN it was 0.966 µM (active). For the same molecule, the GI50 in the test with NCI-H522 is 0.0785 µM (active); in the test with SNB-75 it was 4.48 µM (inactive); with A498 it was > 47.2 µM (inactive); in the test with SF-268, 3.44 µM (inactive); in the test with NCI/ADR-RES, 15 µM (inactive); in the test with Malme-3M, 0.36 µM (active). Moreover, the GI50 was 2.26 µM (inactive) in the test on HT-29 and 0.543 µM (active) in the test on CAKI-1.

In the case of `COc1ccc(C=O)cc1Oc1ccc(C[C@H]2c3c(cc(OC)c4c3Oc3cc5c(cc3O4)CCN(C)C5=O)CCN2C)cc1`, the GI50 with SK-OV-3 was 6.73 µM (inactive); with T47D, 33.7 µM (inactive); with LOX IMVI it was 9.29 µM (inactive); in the test on OVCAR-4 it was 7.93 µM (inactive); in the test on RXF 393, 3.59 µM (inactive); with HCC 2998 it was 8.28 µM (inactive). Further, the GI50 in the test on SN12C was 12.9 µM (inactive); in the test with 786-0, 8.61 µM (inactive); with DU-145, 12.1 µM (inactive); in the test with OVCAR-8 it was 7.87 µM (inactive); with SK-MEL-5, 7.33 µM (inactive); in the test on ACHN it was 8.43 µM (inactive). The GI50 was 9.44 µM (inactive) in the test with NCI-H522; 7.29 µM (inactive) with SNB-75; 20.1 µM (inactive) with A498; 10.3 µM (inactive) in the test on SF-268; 8.07 µM (inactive) in the test on NCI/ADR-RES; 10.4 µM (inactive) with Malme-3M. Besides, the GI50 with HT-29 was 7.52 µM (inactive); in the test on CAKI-1, 18.7 µM (inactive).

Take `N#CC1(C#N)[C@@H]2CCC=C(Sc3ccccc3)[C@@H]21`: the GI50 with SK-OV-3 is 19.5 µM (inactive); with T47D it was 22.1 µM (inactive); with LOX IMVI it was 13.9 µM (inactive); with OVCAR-4, 14.3 µM (inactive); with RXF 393, 13 µM (inactive); in the test on HCC 2998, 16.7 µM (inactive). Besides, the GI50 with SN12C was 16.4 µM (inactive); in the test on 786-0, 16.1 µM (inactive); in the test with DU-145 it was 16 µM (inactive); in the test with OVCAR-8, 16 µM (inactive); in the test with SK-MEL-5 it was 13.9 µM (inactive); with ACHN it was 15.5 µM (inactive). The GI50 with NCI-H522 was 10.8 µM (inactive); in the test on SNB-75, 20.9 µM (inactive); in the test with A498, 31.7 µM (inactive); in the test with SF-268 it was 20.1 µM (inactive); in the test with NCI/ADR-RES it was 18.4 µM (inactive); in the test on Malme-3M it was 16.9 µM (inactive). Besides, the GI50 with HT-29 was 18.6 µM (inactive); in the test on CAKI-1, 13.6 µM (inactive).

As for `C(=C\c1cccc(/C=C/c2ccccn2)n1)/c1ccccn1`, the GI50 in the test with SK-OV-3 is > 100 µM (inactive); with T47D it was 44.5 µM (inactive); in the test on LOX IMVI it was 66.4 µM (inactive); with OVCAR-4 it was 60.4 µM (inactive); with RXF 393, 62.1 µM (inactive); with HCC 2998, 79.6 µM (inactive). Also, the GI50 in the test with SN12C was 60.7 µM (inactive); in the test on 786-0 it was > 100 µM (inactive); with DU-145, > 100 µM (inactive); in the test with OVCAR-8, 36.2 µM (inactive); in the test on SK-MEL-5 it was 48.4 µM (inactive); in the test with ACHN it was 35.2 µM (inactive). Also, the GI50 in the test with NCI-H522 is 13.4 µM (inactive); in the test on SNB-75, 37.4 µM (inactive); in the test on A498, 0.971 µM (active); in the test with SF-268 it was 20.2 µM (inactive); with NCI/ADR-RES, 39.2 µM (inactive); in the test on Malme-3M, 17.3 µM (inactive). Moreover, the figures for the GI50 with HT-29 and in the test with CAKI-1 were 56.8 µM (inactive) and 50.7 µM (inactive), respectively.

On to `c1ccc2sc(SSSc3nc4ccccc4s3)nc2c1`, for which the GI50 in the test on SK-OV-3 was > 100 µM (inactive); in the test on T47D it was 32 µM (inactive); with LOX IMVI it was 19.1 µM (inactive); with OVCAR-4, > 100 µM (inactive); in the test with RXF 393, > 100 µM (inactive); with HCC 2998, > 100 µM (inactive). In addition, the GI50 with SN12C is > 100 µM (inactive); with 786-0 it was 44.4 µM (inactive); with DU-145, > 100 µM (inactive); with OVCAR-8 it was 55.6 µM (inactive); with SK-MEL-5, > 100 µM (inactive); in the test on ACHN it was > 100 µM (inactive). Besides, the GI50 is 23 µM (inactive) in the test with NCI-H522; > 100 µM (inactive) with SNB-75; > 100 µM (inactive) in the test with A498; > 100 µM (inactive) in the test on SF-268; > 100 µM (inactive) in the test with NCI/ADR-RES; > 100 µM (inactive) with Malme-3M. Also, the GI50 with HT-29 is 35.7 µM (inactive); in the test with CAKI-1 it was > 100 µM (inactive).

Consider `CC(=O)Oc1ccc2ccc(=O)oc2c1OC(C)=O`, for which the GI50 in the test with SK-OV-3 was 73.1 µM (inactive); in the test with T47D it was 82.4 µM (inactive); in the test on LOX IMVI it was 21.3 µM (inactive); with OVCAR-4, 35 µM (inactive); in the test with RXF 393, 22.7 µM (inactive); in the test on HCC 2998 it was 48 µM (inactive). For the same molecule, the GI50 was 19 µM (inactive) in the test on SN12C; 42.1 µM (inactive) in the test with 786-0; > 100 µM (inactive) in the test with DU-145; 35.4 µM (inactive) in the test on OVCAR-8; 27.2 µM (inactive) with SK-MEL-5; 45.4 µM (inactive) in the test on ACHN. Further, the GI50 is 39.5 µM (inactive) in the test on NCI-H522; 66.5 µM (inactive) with SNB-75; > 100 µM (inactive) in the test with A498; 27.8 µM (inactive) with SF-268; 50.6 µM (inactive) in the test with NCI/ADR-RES; > 100 µM (inactive) in the test on Malme-3M. Besides, the GI50 was > 100 µM (inactive) in the test on HT-29 and 43.6 µM (inactive) with CAKI-1.

For `CC(C)(C)c1cc(C(C)(C)C)c(SC2OC(CO)C(O)C(O)C2O)c(O)c1O` (stereo not given), the GI50 in the test on SK-OV-3 was 15.2 µM (inactive); in the test on T47D, 17.6 µM (inactive); in the test on LOX IMVI, 8.95 µM (inactive); in the test with OVCAR-4, 12.3 µM (inactive); with RXF 393, 0.36 µM (active); with HCC 2998 it was 6.22 µM (inactive). Further, the GI50 in the test on SN12C is 10.8 µM (inactive); in the test with 786-0 it was 12.7 µM (inactive); in the test with DU-145, 13.7 µM (inactive); in the test with OVCAR-8 it was 7.62 µM (inactive); with SK-MEL-5, 5.57 µM (inactive); with ACHN, 6.53 µM (inactive). Also, the GI50 in the test on NCI-H522 is 7.21 µM (inactive); in the test with SNB-75, 1.55 µM (inactive); with A498 it was 14.7 µM (inactive); with SF-268 it was 6.97 µM (inactive); in the test on NCI/ADR-RES it was 10.3 µM (inactive); in the test on Malme-3M, 12.6 µM (inactive). The GI50 in the test with HT-29 was 7.1 µM (inactive); in the test with CAKI-1, 17.9 µM (inactive).

Regarding `O=c1c(Cc2cccc(Cc3c(O)oc4ccccc4c3=O)c2)c(O)oc2ccccc12`, the GI50 in the test on SK-OV-3, with T47D, in the test with LOX IMVI, with OVCAR-4, with RXF 393 and in the test on HCC 2998 was > 100 µM (inactive) in each case. Further, the GI50 in the test on SN12C, in the test with 786-0, in the test on DU-145, with OVCAR-8, in the test on SK-MEL-5 and with ACHN was > 100 µM (inactive) in each case. Further, the GI50 with NCI-H522 is > 100 µM (inactive); with SNB-75, 43 µM (inactive); with A498, > 100 µM (inactive); in the test on SF-268 it was > 100 µM (inactive); in the test with NCI/ADR-RES it was > 100 µM (inactive); in the test on Malme-3M, > 100 µM (inactive). Besides, the GI50 with HT-29 and in the test on CAKI-1 was > 100 µM (inactive) each time.
